In BigSolDB 2.1:

Cc1ccc[n+](CCCC[n+]2cccc(C)c2)c1.F[P-](F)(F)(F)(F)F.F[P-](F)(F)(F)(F)F
solubility (mole fraction)
Settings | 288.15 K | 293.15 K | 298.15 K | 303.15 K | 308.15 K | 313.15 K | 318.15 K | 323.15 K | 328.15 K | 333.15 K
in 2-butanone | 0.00289 | 0.00328 | 0.00379 | 0.00439 | 0.00496 | 0.00556 | 0.00623 | 0.00706 | 0.00771 | 0.00856
in acetophenone | – | – | 0.000748 | 0.00103 | 0.00138 | 0.00183 | 0.0024 | 0.00311 | 0.00428 | 0.00556
in acetylacetone | 0.00119 | 0.00157 | 0.00214 | 0.00282 | 0.00368 | 0.00462 | 0.00598 | 0.00807 | 0.0101 | 0.0136
in cyclohexanone | 0.000205 | 0.000333 | 0.00051 | 0.000746 | 0.000967 | 0.00121 | 0.00146 | 0.00164 | 0.0018 | 0.00186
in water | 2e-06 | 3e-06 | 5e-06 | 8e-06 | 1.4e-05 | 2.4e-05 | 3.9e-05 | 6.3e-05 | 9.8e-05 | 0.000157
